Assay results: ChEMBL document CHEMBL1201862, “PubChem BioAssay data set” (2004)
Activity calls are given as the source filed them. Non-standard residues stand in square brackets, D forms with d. Residues, ends and D or L forms follow the SMILES beside them.

Legend:
[1] = HEK-293T viability loss, compound-treated – cell-based, uHTS hits, cytotoxicity control for B/T-cell NF-kB inhibitor project, dose response (AID 489019); assay type: functional;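 further: IC50 reflects cytotoxicity as loss of cell viability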
[2] = Luminescence Cell-Based Dose Response HTS to Identify Inhibitors of 5'UTR Stem-Loop Driven Prion Protein mRNA Translation in H4 Neuroglioblastoma Cells. [Related pubchem assays: 1827 (Project Summary), 1813 (Primary HTS)]; assay type: functional
HEK293 [3] = experiment: cells; assay type: functional, cell-based; details: Homo sapiens
Jurkat = experiment: blockers of NF-kB activation in T cells – Jurkat, luciferase reporter, luminescence, B- and T-cell, dose response (AID 489004); assay type: functional, cell-based; details: Homo sapiens;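 further: NF-kB luciferase reporter Jurkat cells stimulated with PMA plus ionomycin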
HEK293 [4] = experiment: inhibition of NOD1-driven NF-kB reporter – cell-based, luminescence, uHTS, primary screen (AID 1578); assay type: functional; details: Homo sapiens
[5] = alpha-synuclein stem-loop luciferase translation blockers – H4 neuroglioma cells, luminescence, confirmation (AID 1988); assay type: functional, cell-based
[6] = reduction of Shn3 3'UTR-driven luciferase in osteoblasts – cell-based, Clone20 osteoblasts, firefly luciferase, cherry-picked, dose response (AID 624132); assay type: functional;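 further: firefly luciferase luminescence from reporter carrying the Shn3 3'UTR in osteoblasts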
HEK293 [7] = experiment: NOD2 signaling inhibitors in MDP-stimulated cells, cell-based, uHTS, luminescence (AID 2001); assay type: functional; details: Homo sapiens
[8] = non-specific 3'UTR reporter inhibition in Clone20-Shn3RL – cell-based, Renilla luciferase, cherry-picked, counter-screen for Shn3 inhibitor project, dose response (AID 624133); assay type: functional
Tumor necrosis factor = Tumor necrosis factor (Homo sapiens, UniProt P01375); experiment: analog potency on TNFa NF-kB signaling – cell-based, revised, SAR follow-up (AID 2337); assay type: functional
[9] = loss of viability in HepG2 cells – cell-based, CellTiter-Glo, cherry-picked, cytotoxicity control for Shn3 inhibitor project, dose response (AID 624134); assay type: functional
HEK293 [10] = experiment: cells; details: Homo sapiens
HEK293 [11] = experiment: cells; assay type: functional, cell-based; details: Homo sapiens; remark: listed apart in the source
[12] = luciferase reporter signal suppression in cells – H4 neuroglioma cells, luminescence, dose response (AID 1990); assay type: functional, cell-based
[13] = target: T1, Heat shock factor protein 1 (Mus musculus, UniProt P38532); experiment: decrease of HSF1-responsive luciferase luminescence – cell-based, NIH3T3, dose retest, confirmation (AID 2382); assay type: functional;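 further: NIH3T3 fibroblasts with HSF1-driven luciferase reporter stressed by proteasome inhibitor MG132; luminescence from HSF1-driven luciferase expression after 8 hours of MG132 stress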
T1 sequence (P38532 whole entry): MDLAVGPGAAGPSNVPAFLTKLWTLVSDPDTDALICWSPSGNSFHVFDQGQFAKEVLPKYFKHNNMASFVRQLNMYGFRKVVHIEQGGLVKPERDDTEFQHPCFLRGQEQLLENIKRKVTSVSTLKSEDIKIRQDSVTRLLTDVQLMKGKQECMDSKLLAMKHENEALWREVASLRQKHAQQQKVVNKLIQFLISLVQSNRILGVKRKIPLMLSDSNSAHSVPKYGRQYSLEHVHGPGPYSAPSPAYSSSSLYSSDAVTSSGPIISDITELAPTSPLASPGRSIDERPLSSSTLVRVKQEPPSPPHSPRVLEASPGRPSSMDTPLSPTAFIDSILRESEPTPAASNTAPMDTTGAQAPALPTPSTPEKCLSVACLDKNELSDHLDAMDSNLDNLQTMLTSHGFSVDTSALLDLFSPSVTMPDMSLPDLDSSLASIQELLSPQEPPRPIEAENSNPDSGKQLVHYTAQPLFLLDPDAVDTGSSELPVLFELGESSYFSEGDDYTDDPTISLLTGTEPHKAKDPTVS

[14] = target: T2, Nucleotide-binding oligomerization domain-containing protein 1 (Homo sapiens, UniProt Q9Y239); experiment: blockers of NOD1 pathway activity – revised, SAR follow-up (AID 2333); assay type: functional
T2 sequence (Q9Y239 whole entry): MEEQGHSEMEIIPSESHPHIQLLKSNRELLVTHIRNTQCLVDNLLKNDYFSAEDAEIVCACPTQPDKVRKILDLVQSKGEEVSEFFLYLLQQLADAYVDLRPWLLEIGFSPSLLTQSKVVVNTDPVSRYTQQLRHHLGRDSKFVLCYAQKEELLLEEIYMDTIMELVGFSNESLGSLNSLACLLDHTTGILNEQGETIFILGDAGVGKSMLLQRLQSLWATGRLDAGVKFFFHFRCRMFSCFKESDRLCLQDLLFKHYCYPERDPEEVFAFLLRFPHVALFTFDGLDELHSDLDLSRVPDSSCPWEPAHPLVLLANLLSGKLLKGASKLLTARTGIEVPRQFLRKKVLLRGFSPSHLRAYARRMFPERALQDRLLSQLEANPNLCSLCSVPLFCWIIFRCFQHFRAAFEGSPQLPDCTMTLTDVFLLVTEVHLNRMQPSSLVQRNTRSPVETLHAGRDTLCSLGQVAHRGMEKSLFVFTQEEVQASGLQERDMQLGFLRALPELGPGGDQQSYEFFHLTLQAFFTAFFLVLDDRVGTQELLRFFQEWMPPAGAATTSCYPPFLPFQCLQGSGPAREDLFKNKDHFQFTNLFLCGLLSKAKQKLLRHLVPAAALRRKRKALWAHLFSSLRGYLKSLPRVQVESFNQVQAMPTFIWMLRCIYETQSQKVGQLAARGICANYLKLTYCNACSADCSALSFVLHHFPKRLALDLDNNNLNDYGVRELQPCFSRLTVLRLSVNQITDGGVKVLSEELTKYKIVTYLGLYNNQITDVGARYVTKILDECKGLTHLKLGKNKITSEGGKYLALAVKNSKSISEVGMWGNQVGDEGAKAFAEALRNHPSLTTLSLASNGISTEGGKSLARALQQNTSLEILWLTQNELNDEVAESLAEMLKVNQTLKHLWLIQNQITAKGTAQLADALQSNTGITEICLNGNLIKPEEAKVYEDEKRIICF

[15] = target: T3, Type-1 angiotensin II receptor (Homo sapiens, UniProt P30556); experiment: antagonism of angiotensin II type 1 receptor – cell-based, uHTS hits, selectivity assay for APJ receptor antagonist project, dose response (AID 463214); assay type: functional;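 further: antagonist potency against angiotensin II stimulated AT1 response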
T3 sequence (P30556 whole entry): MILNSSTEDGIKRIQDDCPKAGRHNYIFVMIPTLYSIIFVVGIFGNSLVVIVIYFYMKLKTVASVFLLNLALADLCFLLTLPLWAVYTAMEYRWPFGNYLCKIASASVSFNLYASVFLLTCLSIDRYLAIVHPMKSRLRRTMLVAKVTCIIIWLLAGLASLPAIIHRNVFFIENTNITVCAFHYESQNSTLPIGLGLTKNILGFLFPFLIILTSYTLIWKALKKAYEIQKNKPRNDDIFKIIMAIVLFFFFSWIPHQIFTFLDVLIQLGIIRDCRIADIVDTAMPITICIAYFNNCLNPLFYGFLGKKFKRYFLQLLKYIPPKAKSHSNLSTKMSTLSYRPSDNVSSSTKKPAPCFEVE

Beta-galactosidase = Beta-galactosidase (Escherichia coli, UniProt Q8VNN2); experiment: PubChem AID 485352; assay type: functional
[16] = target: T4, Tyrosine-protein phosphatase non-receptor type 11 (Homo sapiens, UniProt Q06124); experiment: PTPN11 enzyme inhibitors – biochemical, selectivity assay for STEP inhibitor project, dose response (AID 602367); assay type: functional; details: read-out: IC50_Mean
T4 sequence (Q06124 whole entry): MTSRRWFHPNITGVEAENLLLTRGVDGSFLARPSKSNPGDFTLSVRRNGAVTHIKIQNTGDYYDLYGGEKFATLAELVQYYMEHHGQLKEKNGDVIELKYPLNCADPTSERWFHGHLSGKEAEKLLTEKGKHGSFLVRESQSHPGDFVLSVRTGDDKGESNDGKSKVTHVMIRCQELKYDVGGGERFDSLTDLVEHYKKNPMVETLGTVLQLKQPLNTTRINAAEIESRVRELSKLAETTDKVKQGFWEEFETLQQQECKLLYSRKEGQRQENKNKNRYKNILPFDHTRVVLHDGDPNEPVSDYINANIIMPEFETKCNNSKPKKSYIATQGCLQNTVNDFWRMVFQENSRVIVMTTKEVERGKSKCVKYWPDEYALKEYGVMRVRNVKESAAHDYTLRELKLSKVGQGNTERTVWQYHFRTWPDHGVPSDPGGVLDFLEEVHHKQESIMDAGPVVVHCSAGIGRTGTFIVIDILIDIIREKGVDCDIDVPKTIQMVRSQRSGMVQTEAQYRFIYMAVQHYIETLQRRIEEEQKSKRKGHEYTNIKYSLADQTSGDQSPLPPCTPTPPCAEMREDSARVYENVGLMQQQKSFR

[17] = target: T5, Tyrosine-protein phosphatase non-receptor type 5 (Homo sapiens, UniProt P54829); experiment: PTPN5 enzyme inhibition – biochemical, fluorescence intensity, uHTS hits, confirmation (AID 602372); assay type: functional; details: read-out: IC50_Mean
T5 sequence (P54829 whole entry): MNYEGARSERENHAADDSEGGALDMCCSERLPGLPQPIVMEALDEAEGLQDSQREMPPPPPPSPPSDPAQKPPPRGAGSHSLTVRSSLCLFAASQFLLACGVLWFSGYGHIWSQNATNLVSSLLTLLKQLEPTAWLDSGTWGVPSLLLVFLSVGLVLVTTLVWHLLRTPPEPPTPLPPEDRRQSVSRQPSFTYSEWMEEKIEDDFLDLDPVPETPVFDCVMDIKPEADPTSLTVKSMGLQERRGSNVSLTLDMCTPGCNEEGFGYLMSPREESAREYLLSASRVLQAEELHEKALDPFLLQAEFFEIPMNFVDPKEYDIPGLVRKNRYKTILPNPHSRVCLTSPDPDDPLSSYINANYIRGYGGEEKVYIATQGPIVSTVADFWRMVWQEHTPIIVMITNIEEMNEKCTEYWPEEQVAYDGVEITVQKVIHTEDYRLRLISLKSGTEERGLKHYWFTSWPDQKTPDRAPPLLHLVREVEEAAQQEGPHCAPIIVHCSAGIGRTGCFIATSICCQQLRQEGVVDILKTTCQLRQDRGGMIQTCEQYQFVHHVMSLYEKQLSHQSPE

[18] = target: Dual specificity protein phosphatase 3 (Homo sapiens, UniProt P51452); experiment: VHR phosphatase inhibition, dose response, selectivity assay for STEP inhibitor project, biochemical (AID 602374); assay type: functional; details: read-out: IC50_Mean
INS1 = experiment: INS-1E survival protection against cytokine death – cell-based, luminescence, retest, dose response (AID 449756); assay type: functional; details: Rattus norvegicus;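 further: cell death triggered by IL-1 beta plus TNF-alpha plus IFN-gamma mixture; protective hits raise ATP signal compared with cytokine alone wells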
[19] = target: Glucose-6-phosphate 1-dehydrogenase (Homo sapiens, UniProt P11413); experiment: inhibition of Homo sapiens G6PD, dose series – biochemical, fluorescence, selectivity assay for P. falciparum G6PD inhibitor project, dose response (AID 504792); assay type: functional
P388 = experiment: cells; assay type: functional; details: Mus musculus
P388/ADR = experiment: cells; assay type: functional; details: Mus musculus
SN12K1 = experiment: cells; assay type: functional; details: Homo sapiens

Sequence of Beta-galactosidase (Q8VNN2 whole entry): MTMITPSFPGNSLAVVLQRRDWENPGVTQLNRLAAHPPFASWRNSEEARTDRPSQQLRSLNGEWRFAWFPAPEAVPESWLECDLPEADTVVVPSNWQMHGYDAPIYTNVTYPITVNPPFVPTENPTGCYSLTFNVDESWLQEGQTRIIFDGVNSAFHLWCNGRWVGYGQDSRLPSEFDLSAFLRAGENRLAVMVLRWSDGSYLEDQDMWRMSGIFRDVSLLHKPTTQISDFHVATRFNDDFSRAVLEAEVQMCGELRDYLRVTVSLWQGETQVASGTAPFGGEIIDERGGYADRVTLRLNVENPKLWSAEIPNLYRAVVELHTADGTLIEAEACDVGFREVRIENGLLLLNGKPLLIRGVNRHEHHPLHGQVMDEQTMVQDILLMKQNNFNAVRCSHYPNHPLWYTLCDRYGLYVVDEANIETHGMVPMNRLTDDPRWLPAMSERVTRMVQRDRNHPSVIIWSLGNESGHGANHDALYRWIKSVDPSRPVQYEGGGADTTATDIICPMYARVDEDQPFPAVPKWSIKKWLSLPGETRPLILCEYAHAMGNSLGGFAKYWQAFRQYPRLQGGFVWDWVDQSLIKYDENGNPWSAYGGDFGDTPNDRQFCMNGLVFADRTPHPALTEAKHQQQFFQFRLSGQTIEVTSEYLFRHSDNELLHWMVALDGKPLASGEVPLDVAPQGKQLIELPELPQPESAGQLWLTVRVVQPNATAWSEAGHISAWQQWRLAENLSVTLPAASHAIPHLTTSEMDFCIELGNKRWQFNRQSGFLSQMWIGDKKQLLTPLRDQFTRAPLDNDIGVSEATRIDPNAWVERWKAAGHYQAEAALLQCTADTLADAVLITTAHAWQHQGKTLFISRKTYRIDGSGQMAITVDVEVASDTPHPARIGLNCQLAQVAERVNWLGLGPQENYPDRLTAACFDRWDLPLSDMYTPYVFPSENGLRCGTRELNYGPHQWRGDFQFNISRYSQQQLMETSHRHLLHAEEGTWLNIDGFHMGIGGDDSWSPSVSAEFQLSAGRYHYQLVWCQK
Sequence of Dual specificity protein phosphatase 3 (P51452 whole entry): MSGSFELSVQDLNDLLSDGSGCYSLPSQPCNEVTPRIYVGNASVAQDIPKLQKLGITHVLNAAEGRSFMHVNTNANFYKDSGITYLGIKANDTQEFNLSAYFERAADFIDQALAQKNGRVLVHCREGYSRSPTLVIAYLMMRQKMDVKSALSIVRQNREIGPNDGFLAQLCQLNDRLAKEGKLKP
Sequence of Glucose-6-phosphate 1-dehydrogenase (P11413 whole entry): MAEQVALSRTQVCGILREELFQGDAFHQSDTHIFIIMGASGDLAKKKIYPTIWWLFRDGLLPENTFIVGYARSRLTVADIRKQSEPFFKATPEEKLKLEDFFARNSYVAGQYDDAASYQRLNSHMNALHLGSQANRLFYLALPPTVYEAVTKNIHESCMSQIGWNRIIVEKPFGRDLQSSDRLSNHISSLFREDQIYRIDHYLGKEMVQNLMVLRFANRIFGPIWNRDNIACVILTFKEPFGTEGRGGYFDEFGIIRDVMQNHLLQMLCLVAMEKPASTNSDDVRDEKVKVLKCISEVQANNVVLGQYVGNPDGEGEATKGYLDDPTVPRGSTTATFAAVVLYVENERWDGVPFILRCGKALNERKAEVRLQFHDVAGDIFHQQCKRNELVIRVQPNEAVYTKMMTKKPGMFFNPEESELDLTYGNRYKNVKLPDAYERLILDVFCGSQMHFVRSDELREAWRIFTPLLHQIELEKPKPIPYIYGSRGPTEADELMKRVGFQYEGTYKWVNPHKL
Sequence of Tumor necrosis factor (P01375 whole entry): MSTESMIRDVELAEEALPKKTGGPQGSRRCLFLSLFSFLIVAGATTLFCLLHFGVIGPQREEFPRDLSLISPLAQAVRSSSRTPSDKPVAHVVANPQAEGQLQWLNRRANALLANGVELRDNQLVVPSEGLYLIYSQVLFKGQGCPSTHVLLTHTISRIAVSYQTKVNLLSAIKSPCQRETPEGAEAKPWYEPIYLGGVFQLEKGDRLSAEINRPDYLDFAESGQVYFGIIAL

In the case of `CC(Nc1ncnc2sccc12)c1ccccc1` (centres undefined), the IC50 [1] is reported as > 80 µM (inactive), the EC50 [2] is reported as > 120 µM (not active) and the IC50 (HEK293 [3]) is reported as 2.67 µM (active). For the same compound, the IC50 (Jurkat) was > 80 µM (inactive), the EC50 (HEK293 [4]) was 1.36 µM (active) and the EC50 [5] was > 120 µM (not active). For the same compound, the AC50 [6] was 0.505 µM (active), the IC50 (HEK293 [7]) was 3.62 µM (active) and the AC50 [8] was 0.606 µM (active). For the same compound, the IC50 (Tumor necrosis factor) was 2.35 µM (active), the AC50 [9] was 1.71 µM (active) and the IC50 (HEK293 [10]) was > 20 µM (inactive). For the same compound, the IC50 (HEK293 [11]) was 13.5 µM (active), the EC50 [12] was > 120 µM (not active) and the EC50 [13] was > 195 µM (not active). The IC50 [14] was 1.55 µM (active).

With `Cc1ccc(NNC(=O)c2c(C)noc2C)cc1Cl` the IC50 [15] was 5.22 µM (active) and the EC50 (Beta-galactosidase) was > 40 µM (inactive).

For `CCCCN(CC)Cc1ccc(CN=C(S)Nc2c(C)cc(C)cc2C)o1`, the IC50 [16] was 4.52 µM (active), the IC50 [17] was 45.9 µM (inactive) and the IC50 [18] was 2.45 µM (active).

In the case of `Cc1ccc(C(=O)COC(=O)c2ccncc2)cc1[N+](=O)[O-]`, the IC50 [15] is reported as 20 µM (active) and the EC50 (Beta-galactosidase) is reported as > 40 µM (inactive).

In the case of `NNc1nc(-c2ccccc2)cc(-c2ccccc2O)n1`, the AC50 (INS1) is reported as 1.7 µM (active), the IC50 [15] is reported as 4.2 µM (active) and the EC50 (Beta-galactosidase) is reported as > 40 µM (inactive).

For `CN1CCN(C(=S)c2ccc(Br)cc2)CC1`, the IC50 [16] was 1.51 µM (active), the IC50 [17] was 30.8 µM (inactive) and the IC50 [18] was 1.14 µM (active). For the same compound, the IC50 [19] was > 80 µM (inactive).

For `Cc1cc(C)nc(NNS(=O)(=O)c2ccc(Cl)cc2)n1`, the IC50 [15] was > 40 µM (not active) and the EC50 (Beta-galactosidase) was > 40 µM (inactive).

With `CN(C)CCNc1c2ccccc2c2c3c(cccc13)C(=O)N(CCN(C)C)C2=O` the GI50 (P388) was 0.0723 µM (active), the GI50 (P388/ADR) was 0.218 µM (active) and the GI50 (SN12K1) was 0.31 µM (active).

For `CC1NC(=O)CC(c2ccccc2)N(N=O)C1c1ccccc1` (centres undefined), the GI50 (P388) was 10.3 µM (inactive), the GI50 (P388/ADR) was 15.3 µM (inactive) and the GI50 (SN12K1) was 21.6 µM (inactive).

With `CCCCCCCCCCCC[C@@H](O)[C@H]1CC[C@H]([C@H](O)CCCC[C@H](O)CCCCC[C@@H](O)CC2=C[C@H](C)OC2=O)O1` the GI50 (P388) was < 0.0366 µM (active), the GI50 (P388/ADR) was 0.106 µM (active) and the GI50 (SN12K1) was < 0.01 µM (active).

For `CC(C)C[C@H](NC(=O)[C@H](CC(C)C)NC(=O)[C@@H](Cc1c[nH]c2ccccc12)NC(=O)[C@H](Cc1ccccc1)NC(=O)[C@@H](Cc1c[nH]c2ccccc12)NC(=O)[C@H](CCC(N)=O)NC(=O)[C@H](CCC(N)=O)NC(=O)[C@H]1CCCN1C(=O)[C@@H](N)CCCCN)C(N)=O` (H-K[dP]QQ[dW]F[dW]LL-NH2), the GI50 (P388) was > 100 µM (inactive), the GI50 (P388/ADR) was > 100 µM (inactive) and the GI50 (SN12K1) was > 100 µM (inactive).
